The values below are quoted from earlier work in patent EP0763114B1, “HEPATITIS G VIRUS AND MOLECULAR CLONING THEREOF” (priority 1994, dated 1995).

The test system of the data set is HCV. Conditions: individuals infected with HCV, while ribavirin was administered.

Consider `NC(=O)c1ncn([C@@H]2O[C@H](CO)[C@@H](O)[C@H]2O)n1` [ribavirin, 1-B-D-ribofuranosyl-1-2,4-triazole, 3-carboxamide], for which the “serum levels of alanine aminotransferase (ALT)” value was “significant reductions” and the viral titer entry is on record as “significant reductions”.
